From US20040014772A1, “Compositions and methods for treating glomerular disorders” (priority 2000, published 2004)
“Also recorded” adds a separate entry of the source.

Key:
HO-1 = HO-1 induction in GEC exposed to PAN (western blot); assay type: cell-based, rat; conditions: PIP 0.2 mM, CM 2 mM, pyruvate 10 mM
From the text: (§1) The microsome fraction obtained was subjected to SDS-page electrophoresis in 1 mm slab gels. The separated forms were transferred from gel to a nitrocellulose sheet using a Mini Trans-blot electroblotting unit. The primary antibodies were monoclonal anti-HO-1 (OSA-111, StressGen, Victoria, BC, Canada) and monoclonal anti-CYP2B1 (PM25, Oxford Biomedical Research, Oxford, Mich., USA). Subsequent to primary and secondary antibody (peroxidase-labeled) treatment, the blots were visualized by enhanced chemiluminescence method.

[1] = system: glomeruli of PAN-treated rats; assay: Bleomycin detectable iron assay in glomeruli of PAN-treated rats; assay type: in vivo, rat; conditions: for bleomycin detectable iron content in the glomeruli: PAN-treated rats, CM 120 mg/kg, PB 400 mg/kg or PIP 85 mg/kg ip, 6 hours, day 4, day 7
Experimental: Glomeruli were isolated by a combination of sieving and differential centrifugation as described in Ueda et al, 19996, Kidney Intl. 49:370-373, and Baliga et al, 1992, Am. J. Physiol. 263:214-221. Glomeruli isolated from two rats were pooled together (as N of 1) for the isolation of microsomes. Iron capable of catalyzing free radical reactions was measured by bleomycin detectable iron assay as described by Gutteridge et al, 1981, Biochem. J. 199:263-265, Gutteridge et al, 1982, Biochem. J. 206:605-609, Baliga et al, 1993, Bioche.

[2] = system: glomerular epithelial cells GEC; assay: PAN induced hydroxyl radical formation in GEC (deoxyribose degradation); assay type: cell-based, rat; conditions: PAN 1.5 mM 1 h; preincubation CM 2 mM, PB 25 μM, RN 1 mM, PIP 0.2 mM, pyruvate 10 mM
Experimental: 2-deoxy-D-ribose in a final concentration of 3 mM was added to the medium just prior to the incubation. At the end of the incubation, the incubation medium was collected for the measurement of hydroxyl radical formation by deoxyribose degradation method as in Baliga et al (Kidney Intl. 1996, 50:1118-1124.).
Confluent GEC monolayer was washed twice with HBSS and then incubated with 1.5 mM PAN in HBSS for a period of time before substantial cell killing occurs (1 h) at 37° C. 2-deoxy-D-ribose in a final concentration of 3 mM was added to the medium just prior to the incubation. At the end of the incubation, the incubation medium was collected for the measurement of hydroxyl radical formation by deoxyribose degradation method described in Baliga et al, 1996, Kidney Int. 50:1118-1124. To determine the effect of CYP inhibitors on the hydroxyl radical formation, GEC monolayers were preincubated with CM, RN or PB as mentioned above.

[3] = Weight loss/gain of rats before and after treatments (PAN-induced nephrotic syndrome); assay type: in vivo, rat; conditions: for Body weight After Treatment (day7): rats, day 7, PAN 7.5 mg/100 g BW iv, CM 120 mg/kg ip twice a day, PB 400 mg/kg ip every other day, means ± SE
Experimental: Two different general CYP inhibitors were used, cimetidine (CM) and piperonyl butoxide (PB). Cimetidine has imidazole and cyano groups that inhibit CYP by interacting with the heme moiety. […] To determine the effect of the CYP inhibitors in PAN- induced nephrotic syndrome, CM (120 mg/kg BW) was administered intraperitoneal 1 h prior to PAN injection and then twice a day. Piperonyl butoxide (PB) which yields a metabolite that binds to the heme moiety of CYP, was given intraperitoneal (400 mg/kg BW) 4h before PAN injection and then every other day.
Also, the CYP2B1 inhibitor piperine (PIP), a methylenedioxyphenyl compound found in black and red pepper was used. PIP is believed to inhibit CYP2B1 by forming an inhibitory complex therewith. PIP was administered at a dose of 85 mg/kg of body weight (BW) by an intraperitoneal injection 16 hours prior to PAN injection and then once a day.

cytochrome P450 = assay: Cytochrome P450 content of microsome fraction (CO difference spectrum); conditions: for CYP content in kidney / glomeruli: PAN-treated rats, day 7
Experimental: Male Sprague-Dawley rats weighing 200-250 g were injected either saline or a single intravenous injection of PAN (Sigma, St. Louis) in a dose of 7.5 mg/100g BW (day 0) as described in Ueda et al, 19996, Kidney Intl. 49:370-373. Animals were housed in separate metabolic cages and allowed free access to rat chow (Purina). Daily urine protein excretion was determined and animals were sacrificed on day 7. Blood was obtained for the measurement of serum albumin and the evaluation of renal function as measured by blood urea nitrogen (BUN) and plasma creatinine. Cell fraction of the glomeruli was prepared for bleomycin detectable iron assay. The microsome fraction was utilized for the measurement of CYP content.

ferritin = assay: Ferritin immunohistochemistry in kidney of PAN-treated rats; assay type: in vivo, rat
Experimental: Kidney cortical sections were fixed in 10% buffered formalin for 6 hours and embedded in paraffin. After deparaffinization and antigen retrieval, the sections were immunolabeled and visualized according to an avidin-biotin complex (ABC) method. The primary antibody for detection of ferritin was polyclonal anti-Ferritin (L subunit) antibody (605022; Boehringer Mannheim Corp., Indianapolis, Ind., USA).

CYP2B1 = CYP2B1 content in glomeruli (immunohistochemistry, western blot); assay type: in vivo, rat; conditions: PAN-treated rats, 6 hours to day 7
From the text: as §1, with “method. Kidney cortical sections were fixed in 10% buffered formalin for 6 hours and embedded in paraffin. After deparaffinization and antigen retrieval, the sections were immunolabeled and visualized according to an avidin-biotin complex (ABC) method. The primary antibody for detection of ferritin was polyclonal anti-Ferritin (L subunit) antibody (605022; Boehringer Mannheim Corp., Indianapolis, Ind., USA).” for “method.”

[4] = system: glomerular epithelial cells GEC; assay: Intracellular H2O2 generation in GEC (DCF fluorescence); assay type: cell-based, rat; conditions: PAN 1.5 mM; CM, PIP, RN or pyruvate 10 mM
Experimental: The principle of this method is that the oxidation of 2′,7′-dichlorofluorescin-diacetate (DCFH-DA) in the presence of H2O2 produces the highly fluorescent compound 2′,7′-dichlorofluroescin (DCF) which can be measured by fluorometer. The intracellular generation of H2O2 in GEC was tested utilizing the microplate assay procedure described by Rosenkranz et al (J. Immunol. Methods, 1992, 156:39-45.). In brief, confluent GEC were harvested by trypsin and suspended in HBSS. After an equilibration period at 37° C. with constant shaking, they were transferred to a microplate (2×10^5-1×10^6 cells/well) and then incubated at 37° C. with equal volumes of DCFH-DA (10 μl/ml) and PAN (1.5 mM) for the planned time period. At the end of the incubation, the fluorescent intensity of the cell suspension was read using a fluorescence spectrophotometer (wavelength 485/535 nm) capable of reading microtiter plates.

| Structure (SMILES) | HO-1 induction in GEC (HO-1) | bleomycin detectable iron content in the glomeruli [1] | catalytic iron content in the glomeruli (bleomycin detectable iron assay) ([1]; rats 7 days after PAN 7.5 mg/100 g BW iv, control value 39, N=3, P<0.01) [nmol/mg protein] | hydroxyl radical formation in GEC [2] | ascites and weight gain at the time of sacrifice ([3]; compared to control animals and those treated with CYP inhibitors) | Body weight After Treatment (day7) [3] [g] | CYP content in the liver (cytochrome P450; PAN treated vs untreated rats) | CYP content in kidney / glomeruli (cytochrome P450) | ferritin content in the glomeruli and the tubules (ferritin) | CYP2B1 content in the glomeruli (CYP2B1) | intracellular H2O2 generation in GEC [4] |
| --- | --- | --- | --- | --- | --- | --- | --- | --- | --- | --- | --- |
| CN(C)c1ncnc2c1ncn2[C@@H]1O[C@H](CO)[C@@H](N)[C@H]1O [PAN, puromycin aminonucleoside] | marked induction | markedly elevated | 160 | significant increase; also recorded: significant production | developed ascites and significant weight gain | 291 ± 8 | no difference | not detectable | significant increase | marked decrease | marked increase |
| CN/C(=N/CCSCc1nc[nH]c1C)NC#N [CM, cimetidine] | significantly prevented the induction | significantly prevent the increase; also recorded: significantly prevented this increase | – | markedly reduce; also recorded: significantly reduced | – | 253 ± 9 | – | significantly preserve | markedly reduced the up-regulation | preserved | significantly decreased |
